The values below come from ChEMBL document CHEMBL1909046, “DrugMatrix in vitro pharmacology data”.

pIC50: −log10 of the molar value.

As usually defined, the pIC50 is −log10 of the IC50, conventionally taken in molar units.

In test [1] the target is Epidermal growth factor receptor (Homo sapiens, UniProt P00533). The experiment in a line: DRUGMATRIX: Protein Tyrosine Kinase, EGF Receptor enzyme inhibition (substrate: Poly(Glu:Tyr)). Format: cell-based, Insect cells. The note with it: insect cells; Not Active = under 50% inhibition at 10 µM.
In test [2] the target is Beta-3 adrenergic receptor (Homo sapiens, UniProt P13945). Briefly: DRUGMATRIX: Adrenergic beta3 radioligand binding (ligand: [125I] Cyanopindolol). Type of test: cell membranes, HEK293, Membrane. The following applies: hek293; Not Active = under 50% inhibition at 10 µM.
The target in test [3] is Receptor tyrosine-protein kinase erbB-2 (Homo sapiens, UniProt P04626). Briefly: biochemical. Format: cell-based, Insect cells. The note with it: insect cells.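 Further: inhibition of HER2 kinase enzyme activity, measured with Poly(Glu:Tyr) as the phosphorylation substrate; in other assays of this panel Not Active means under 50% inhibition at 10 µM.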
The target of a further test is T1, Progesterone receptor (Bos taurus, UniProt Q690N0).
T1 sequence (Q690N0 whole entry): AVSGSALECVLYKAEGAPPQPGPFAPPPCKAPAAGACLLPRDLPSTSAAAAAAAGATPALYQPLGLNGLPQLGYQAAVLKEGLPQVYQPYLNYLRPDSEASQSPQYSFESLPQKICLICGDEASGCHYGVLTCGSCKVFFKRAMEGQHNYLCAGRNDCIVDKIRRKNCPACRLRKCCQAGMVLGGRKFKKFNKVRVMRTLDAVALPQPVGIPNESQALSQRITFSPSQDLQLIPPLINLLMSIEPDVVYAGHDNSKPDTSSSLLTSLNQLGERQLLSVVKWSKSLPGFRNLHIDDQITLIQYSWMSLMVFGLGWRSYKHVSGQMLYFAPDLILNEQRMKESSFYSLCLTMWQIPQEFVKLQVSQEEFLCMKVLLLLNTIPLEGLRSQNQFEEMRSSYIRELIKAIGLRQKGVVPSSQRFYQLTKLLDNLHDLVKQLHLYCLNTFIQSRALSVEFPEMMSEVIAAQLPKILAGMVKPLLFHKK
The experiment in a line: DRUGMATRIX: Progesterone radioligand binding (ligand: [3H] R-5020). The note with it: Not Active = under 50% inhibition at 10 µM. Format: tissue-based, Uterus.

Test [4] deals with Protein kinase C alpha type (Homo sapiens, UniProt P17252). Format: cell-based. The following applies: sf9.

Sequence of Beta-3 adrenergic receptor (P13945 whole entry): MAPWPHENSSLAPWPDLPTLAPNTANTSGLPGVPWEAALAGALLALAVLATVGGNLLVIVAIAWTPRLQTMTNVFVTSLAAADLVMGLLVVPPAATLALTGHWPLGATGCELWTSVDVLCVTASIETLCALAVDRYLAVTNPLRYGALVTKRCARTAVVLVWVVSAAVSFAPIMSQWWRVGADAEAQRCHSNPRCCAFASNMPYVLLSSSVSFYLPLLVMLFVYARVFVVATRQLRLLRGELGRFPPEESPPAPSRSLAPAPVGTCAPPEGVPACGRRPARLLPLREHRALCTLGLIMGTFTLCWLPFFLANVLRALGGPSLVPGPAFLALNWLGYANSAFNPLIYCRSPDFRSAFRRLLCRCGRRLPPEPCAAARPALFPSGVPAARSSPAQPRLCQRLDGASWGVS

With `Cc1cccc(Nc2cc(Cl)nc(SCC(=O)O)n2)c1C` [PIRINIXIC ACID], the IC50 entry (in test [1]; in test [2]; in test [3]; at Progesterone receptor; in test [4]) was “Not Active” each time.

As to `CC[C@H](C)C(=O)O[C@H]1C[C@H](O)C=C2C=C[C@H](C)[C@H](CC[C@@H](O)C[C@@H](O)CC(=O)O)[C@H]21` [PRAVASTATIN], the IC50 result (in test [1]; in test [2]; in test [3]; at Progesterone receptor; in test [4]) was “Not Active” throughout.

Regarding `CC(C)(Sc1cc(C(C)(C)C)c(O)c(C(C)(C)C)c1)Sc1cc(C(C)(C)C)c(O)c(C(C)(C)C)c1` [PROBUCOL], the IC50 entry (in test [1]; in test [2]; in test [3]; on Progesterone receptor; in test [4]) was “Not Active” in each case.

As for COBALT(II) ACETYLACETONATE, the IC50 result (in test [1]; in test [2]; on Progesterone receptor; in test [4]) was “Not Active” each time. In addition, the Ki entry (in test [1]; in test [2]; on Progesterone receptor; in test [4]) was “Not Active” throughout. In addition, the negative-log IC50 (pIC50) in test [3] (read-out: IC50) was 5.50.

Regarding INSULIN HUMAN, the IC50 entry (in test [1]; in test [2]; in test [3]; at Progesterone receptor; in test [4]) was “Not Active” in each case. For the same molecule, the Ki entry (in test [1]; in test [2]; in test [3]; on Progesterone receptor; in test [4]) was “Not Active” throughout.

On to POLYVINYL ALCOHOL, for which the IC50 entry (in test [1]; in test [2]; in test [3]; at Progesterone receptor; in test [4]) was “Not Active” throughout. For the same molecule, the Ki entry (in test [1]; in test [2]; in test [3]; on Progesterone receptor; in test [4]) was “Not Active” throughout.
